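All cell lines were grown in 96-well plates and treated with compound for 48 hours. Abbreviation: GI50, concentration required for 50% inhibition of growth. The concentration for full growth arrest is given as TGI.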 Bounds are passed on as bounds.

Test systems include HOP-62 NSCLC; SK-MEL-5 melanoma; RPMI-8226 leukemia; MOLT-4 leukemia; NCI/ADR-RES ovarian; K-562 leukemia; NCI-H23 lung; HOP-92 NSCLC; OVCAR-8 ovarian; A549 NSCLC.
Test in all cases: DTP human tumour cell line panel, 48 h

Regarding `O=C1c2ccccc2-c2ccc(NC(=O)C3CCCCC3C(=O)O)cc21` (stereo not drawn), the TGI in the assay on HOP-62 NSCLC, in the assay on SK-MEL-5 melanoma, with RPMI-8226 leukemia, with MOLT-4 leukemia, with NCI/ADR-RES ovarian and in the assay on K-562 leukemia was greater than 100 µM each time. In addition, the TGI with NCI-H23 lung, with HOP-92 NSCLC, with OVCAR-8 ovarian and with A549 NSCLC was greater than 100 µM in each case.

In the case of `O=CNc1cccc2c3c([nH]c12)CCCCCC3`, the TGI in the assay with HOP-62 NSCLC, in the assay on SK-MEL-5 melanoma, in the assay on MOLT-4 leukemia, in the assay with NCI/ADR-RES ovarian, in the assay on K-562 leukemia and in the assay on NCI-H23 lung was greater than 100 µM each time. The TGI with HOP-92 NSCLC, in the assay on OVCAR-8 ovarian and in the assay on A549 NSCLC was greater than 100 µM in each case.

With `CC(C)(C)OC(=O)NC(Cc1ccccc1)C(=O)N[C@H]1c2ccsc2/C(=N/O)[C@H]1O` (stereo partly drawn), the TGI in the assay on HOP-62 NSCLC, in the assay with SK-MEL-5 melanoma, in the assay on MOLT-4 leukemia, with NCI/ADR-RES ovarian, with K-562 leukemia and in the assay with NCI-H23 lung was greater than 100 µM each time. Also, the concentration for total growth inhibition (TGI) with HOP-92 NSCLC, with OVCAR-8 ovarian and in the assay on A549 NSCLC was greater than 100 µM throughout.

As to `CCOC(=O)C1C(c2cc(OC)c(O)c(OC)c2)c2cc3c(cc2OC1(C)O)OCO3` (stereo not drawn), the TGI in the assay on HOP-62 NSCLC, in the assay on SK-MEL-5 melanoma, in the assay on RPMI-8226 leukemia, in the assay on MOLT-4 leukemia, with K-562 leukemia and with NCI-H23 lung was greater than 100 µM throughout. Further, the TGI in the assay with HOP-92 NSCLC is 57 µM; in the assay with OVCAR-8 ovarian it was greater than 100 µM; with A549 NSCLC it was greater than 100 µM.

On to `C=C1C(=O)O[C@H]2C1[C@H](OC(=O)/C(C)=C\COC(C)=O)C[C@]1(CO1)[C@@H]1[C@H](O)[C@H]3O[C@@]3(C)[C@@H]12` (stereo partly drawn), for which the TGI was greater than 100 µM with HOP-62 NSCLC; 37.8 µM with SK-MEL-5 melanoma; 46.5 µM in the assay on RPMI-8226 leukemia; greater than 73.3 µM in the assay on MOLT-4 leukemia; 54.7 µM with NCI/ADR-RES ovarian; 27 µM in the assay with K-562 leukemia. Besides, the TGI was 29.7 µM in the assay with NCI-H23 lung, 30.8 µM in the assay on HOP-92 NSCLC, 99.5 µM with OVCAR-8 ovarian and greater than 100 µM in the assay with A549 NSCLC.

On to `Cc1cc(NS(=O)(=O)c2ccc(Nc3c4ccccc4nc4c(C(=O)NCCN(C)C)ccc(Cl)c34)cc2)no1`, for which the TGI with HOP-62 NSCLC amounted to 17.3 µM; with SK-MEL-5 melanoma it was 10.1 µM; in the assay with MOLT-4 leukemia, 1.74 µM; in the assay with K-562 leukemia it was 21.2 µM; in the assay on NCI-H23 lung, 16.1 µM; in the assay with OVCAR-8 ovarian, 14 µM. Further, the TGI with A549 NSCLC came out at 17.3 µM.

In the case of `Cc1ccc2c(c1)c(=O)c1c(NCCN(C)C)ccc3nnn2c31`, the concentration for total growth inhibition (TGI) worked out at 21.5 µM in the assay on HOP-62 NSCLC; 14.1 µM in the assay on SK-MEL-5 melanoma; 7.63 µM in the assay on RPMI-8226 leukemia; 5.06 µM in the assay with MOLT-4 leukemia; 19.6 µM with K-562 leukemia; 15.3 µM with NCI-H23 lung. The TGI in the assay on HOP-92 NSCLC came out at 11.5 µM; in the assay with OVCAR-8 ovarian, 17.7 µM; in the assay with A549 NSCLC it was 13.6 µM.

`CCCCc1ccc2[n+](c1)C(C(=O)OCC)=PC2` (stereo not drawn): the TGI in the assay on HOP-62 NSCLC, in the assay with SK-MEL-5 melanoma, in the assay with RPMI-8226 leukemia, in the assay with MOLT-4 leukemia, in the assay with NCI-H23 lung and in the assay on HOP-92 NSCLC was greater than 100 µM in each case. Besides, the concentration for total growth inhibition (TGI) in the assay with OVCAR-8 ovarian and in the assay on A549 NSCLC was greater than 100 µM in each case.

As for `COc1cc(N=Nc2cccc(S(=O)(=O)O)c2)c(C)cc1N=Nc1ccc(/C=C/c2ccc(N=[N+]([O-])c3ccc(/C=C/c4ccc(N=Nc5cc(C)c(N=Nc6cccc(S(=O)(=O)O)c6)cc5OC)cc4)c(S(=O)(=O)O)c3)cc2S(=O)(=O)O)cc1`, the concentration for total growth inhibition (TGI) in the assay on HOP-62 NSCLC, in the assay with SK-MEL-5 melanoma, in the assay with MOLT-4 leukemia, in the assay on NCI/ADR-RES ovarian, with K-562 leukemia and in the assay with NCI-H23 lung was greater than 100 µM in each case. In addition, the total growth inhibition concentration (TGI) in the assay on HOP-92 NSCLC, in the assay on OVCAR-8 ovarian and in the assay with A549 NSCLC was greater than 100 µM throughout.

Regarding `COC(=O)C(C)N1C(=O)c2ccccc2I1OC(C)=O` (stereo not drawn), the GI50 with SK-MEL-5 melanoma is greater than 100 µM; in the assay with RPMI-8226 leukemia, 15.3 µM; with MOLT-4 leukemia, 22 µM; in the assay on NCI/ADR-RES ovarian, greater than 100 µM; in the assay on K-562 leukemia, 41.6 µM; in the assay on NCI-H23 lung, 40.3 µM. The GI50 with HOP-92 NSCLC, with OVCAR-8 ovarian and in the assay on A549 NSCLC was greater than 100 µM in each case. For the same molecule, the concentration for total growth inhibition (TGI) was greater than 100 µM with SK-MEL-5 melanoma; 37.6 µM in the assay with RPMI-8226 leukemia; 45.7 µM in the assay with MOLT-4 leukemia; greater than 100 µM in the assay with NCI/ADR-RES ovarian; greater than 100 µM in the assay on K-562 leukemia; greater than 100 µM in the assay with NCI-H23 lung. The concentration for total growth inhibition (TGI) in the assay on HOP-92 NSCLC, with OVCAR-8 ovarian and in the assay with A549 NSCLC was greater than 100 µM in each case.

By TGI is commonly meant the concentration giving total growth inhibition. A higher TGI goes with lower sensitivity of the cells. In general, GI50 refers to the concentration that inhibits growth by half.

These data come from PubChem BioAssay (NCI).
